In PMC6538996, “Evaluating the In Vivo Specificity of [^18F]UCB-H for the SV2A Protein, Compared with SV2B and SV2C in Rats Using microPET” (Molecules, 2019):

Experiments:
[1] = target: T1, human SV2A (Homo sapiens, UniProt Q7L0J3); experiment: In vitro radioligand binding assay, hSV2A (HEK293 membranes, 3H-UCB30889); settings: 37 °C, mean n = 3 to 10, read-out: pIC50 SV2A (converted)
T1 construct: expressed in transfected cells; crude membranes
Experimental: Reagents and reference compounds used were of analytical grade and obtained from various commercial sources. All cell culture reagents were obtained from Invitrogen (Merelbeke, Belgium). […] Test and reference compounds were dissolved in 100% DMSO or H2O to give 1 or 10 mM stock solution. The final DMSO concentration in assays was 0.1% unless otherwise stated. Cell lines generated at UCB Biopharma were human embryonic kidney (HEK) 293 cells expressing human SV2A, SV2B or SV2C proteins. Cells were cultured in Dulbecco’s Modified Eagle medium. The culture medium was supplemented with foetal bovine serum (FBS, 10%), 2 mM L-glutamine, 50 to 100 U/mL penicillin, 50 to 100 µg/mL streptomycin, and 200 µg/mL hygromycin B. Cells were grown at 37 °C with 95% air. Confluent cells were detached by 10 min incubation at 37 °C in phosphate buffered saline (PBS) containing 0.02% EDTA. Culture flasks were washed with 15 mL of ice-cold PBS. The cell suspension was centrifuged at 1500× g for 10 min at 4 °C. The pellet was homogenized in 15 mM Tris-HCl buffer (pH 7.5) containing 2 mM MgCl2, 0.3 mM EDTA, and 1 mM EGTA (buffer A) using a glass/teflon homogenizer. The crude homogenate was subjected to a freeze and thaw cycle in liquid nitrogen and DNAse (1 µL/mL) was then added. […] The radioactivity trapped on the filters was counted by liquid scintillation in a β-counter. […]

[2] = target: T2, [^18F]UCB-H binding in rat brain (Rattus norvegicus, UniProt Q02563); experiment: microPET blocking assay of [18F]UCB-H (Vt, Logan plot, PBIF) after pre-treatment with competitors; assay type: in vivo, Sprague Dawley rats; settings: mean ± SEM, n = 5, SV2AL 10 mg/kg, SV2BL and SV2CL 3 mg/kg i.p.
T2 construct: from tissue; host or cells: brain of living Sprague Dawley rats (microPET)
T2 sequence (Q02563 whole entry): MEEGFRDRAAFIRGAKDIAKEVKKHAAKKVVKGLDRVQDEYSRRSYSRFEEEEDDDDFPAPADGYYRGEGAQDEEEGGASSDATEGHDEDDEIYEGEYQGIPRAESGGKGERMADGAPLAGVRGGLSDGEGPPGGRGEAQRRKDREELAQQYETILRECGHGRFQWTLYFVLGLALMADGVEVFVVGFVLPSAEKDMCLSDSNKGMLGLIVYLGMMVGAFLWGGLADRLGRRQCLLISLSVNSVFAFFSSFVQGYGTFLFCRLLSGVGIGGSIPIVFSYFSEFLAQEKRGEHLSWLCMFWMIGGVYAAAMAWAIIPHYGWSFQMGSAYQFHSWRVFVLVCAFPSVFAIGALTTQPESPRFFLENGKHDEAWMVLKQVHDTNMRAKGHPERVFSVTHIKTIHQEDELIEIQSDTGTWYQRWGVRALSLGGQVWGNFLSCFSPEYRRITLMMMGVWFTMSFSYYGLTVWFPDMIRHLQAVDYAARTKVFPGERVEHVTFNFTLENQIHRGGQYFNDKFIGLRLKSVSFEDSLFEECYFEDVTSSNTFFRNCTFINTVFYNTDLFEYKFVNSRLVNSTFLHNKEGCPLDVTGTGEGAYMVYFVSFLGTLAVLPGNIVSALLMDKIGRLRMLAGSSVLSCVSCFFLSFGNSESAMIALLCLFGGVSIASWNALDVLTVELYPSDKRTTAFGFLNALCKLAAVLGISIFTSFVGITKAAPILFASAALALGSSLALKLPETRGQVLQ
Experimental: The competitors were prepared daily in a vehicle composed of distilled water containing 1% methyl cellulose (viscosity: 15 cP, Sigma-Aldrich, Overijse, Belgium) and 5% dimethyl sulphoxide (DMSO, Sigma-Aldrich, Belgium). The concentrations differed depending on the product specifications and their respective pharmacokinetics, provided by UCB Pharma s.a. The dosing used was 10 mg/kg for SV2AL, 3 mg/kg for SV2BL, and 3 mg/kg for SV2CL. All solutions were administered through the intraperitoneal (i.p.) route in a total volume of 1 mL per kg of body weight. The animals used as a control group (vehicle) received an equal volume of vehicle through the same route of administration.
The animals (n = 5 per group) were anesthetized using 4% isoflurane in air at a flow rate of 1 L/min during induction and 1.5% to 2% isoflurane in air at 0.6 L/min during maintenance. Respiration rate and rectal temperature were continuously measured using a physiological monitoring system (Minerve, France). The temperature was maintained at 37 ± 0.5 °C using an air warming system. […]
PMOD software (Version 3.6, PMOD Technologies, Zurich, Switzerland) was used to process the imaging data. […] Finally, the inverse normalization parameters were calculated and applied to the PMOD rat brain atlas to bring it in the individual PET space. […]

[3] = tested on: SV2A; settings: cited from earlier work

T1 sequence (Q7L0J3 whole entry): as the sequence (Q02563 whole entry) above, with E53D, A62S, A71T, D144E, T154A, S440G, A482S, V572I, L634M counted along it

IC50 [1] | mean Vt of [18F]UCB-H in the whole brain of the pre-treated group [2] | Compound | pIC50 (affinity measured in vitro) [3]
6.31 µM | 6.0 ± 0.3 | CC[C@@H](C(N)=O)N1CCCC1=O [SV2AL, levetiracetam] | –
– | – | [11CH3]n1cncc1CN1C[C@@H](c2cc(F)cc(F)c2)CC1=O [[^11C]UCB-A] | 7.9
